Laboratory results from PubChem BioAssay AID330 (DTP/NCI, 2004).
Several values for one entry are separate records, joined by “and”; a condition that tells them apart may be missing. Equal entries are not always repeated. Inconclusive results and toxic doses are left out. Rule for the calls: active = survival T/C of 150% or more; inactive = T/C below 125% in these data.

System: P388 leukemia ip, CD2F1 mice, survival T/C
Test: NCI In Vivo Anticancer Drug Screen. Data for tumor model P388 Leukemia (intraperitoneal) in CD2F1 (CDF1) mice
Details: endpoint: median survival time, higher = longer survival
Method in brief: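 Mice carrying the transplanted tumor received test compound or vehicle. Survival was recorded in each group, and the value is the treated-group measurement divided by that of the vehicle-treated control group.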

[1] = dose: 100.0 mg/kg/injection, schedule: Q04DX003 (ip), vehicle: saline with Tween-80
[2] = dose: 200.0 mg/kg/injection, schedule: Q04DX003 (ip), vehicle: saline with Tween-80
[3] = dose: 400.0 mg/kg/injection, schedule: Q04DX003 (ip), vehicle: saline with Tween-80
[4] = dose: 50.0 mg/kg/injection, schedule: Q01DX009 (ip), vehicle: Klucel (hydroxypropylcellulose) (HPC)
[5] = dose: 100.0 mg/kg/injection, schedule: Q01DX009 (ip), vehicle: Klucel (hydroxypropylcellulose) (HPC)
[6] = dose: 200.0 mg/kg/injection, schedule: Q01DX009 (ip), vehicle: Klucel (hydroxypropylcellulose) (HPC)
[7] = dose: 100.0 mg/kg/injection, schedule: Q01DX009 (ip), vehicle: saline with Tween-80
[8] = dose: 200.0 mg/kg/injection, schedule: Q01DX009 (ip), vehicle: saline with Tween-80

Measured: T/C

O=C1C=CC(=O)C(N(CCO)CCO)=C1
inactive: dose: 12.5 mg/kg/injection, schedule: Q01DX009 (ip), vehicle: saline 99 % of control | dose: 12.5 mg/kg/injection, schedule: Q01DX009 (ip), vehicle: suspension in saline 100 % of control | dose: 25.0 mg/kg/injection, schedule: Q01DX009 (ip), vehicle: saline 94 % of control | dose: 25.0 mg/kg/injection, schedule: Q01DX009 (ip), vehicle: suspension in saline 103 % of control | dose: 50.0 mg/kg/injection, schedule: Q01DX009 (ip), vehicle: saline 95 % of control | dose: 50.0 mg/kg/injection, schedule: Q01DX009 (ip), vehicle: suspension in saline 113 % of control | dose: 100.0 mg/kg/injection, schedule: Q01DX009 (ip), vehicle: saline 95 % of control | dose: 100.0 mg/kg/injection, schedule: Q01DX009 (ip), vehicle: suspension in saline 109 % of control and 111 % of control

CCN(CC)CC.[CH-]1CCCCC1.[CH-]1CCCCC1.[CH-]1CCCCC1.[Cl-].[Cl-].[Sn+4]
inactive: dose: 3.12 mg/kg/injection, schedule: Q01DX005 (ip), vehicle: saline with Tween-80 107 % of control | dose: 6.25 mg/kg/injection, schedule: Q01DX005 (ip), vehicle: saline with Tween-80 110 % of control

CSc1nc2ccc(N)cc2s1
inactive: [1] 97 % of control | [2] 99 % of control | [3] 93 % of control

Nc1cccc2[nH]c(=O)c3ccccc3c12
inactive: dose: 60.0 mg/kg/injection, schedule: Q01DX005 (ip), vehicle: saline with Tween-80 93 % of control | dose: 120.0 mg/kg/injection, schedule: Q01DX005 (ip), vehicle: saline with Tween-80 105 % of control | dose: 240.0 mg/kg/injection, schedule: Q01DX005 (ip), vehicle: saline with Tween-80 106 % of control

CCN(CC)c1ccc(CCc2ccc(N(CC)CC)c3cccnc23)c2ncccc12
inactive: dose: 50.0 mg/kg/injection, schedule: Q01DX005 (ip), vehicle: Klucel (hydroxypropylcellulose) (HPC) 99 % of control | dose: 100.0 mg/kg/injection, schedule: Q01DX005 (ip), vehicle: Klucel (hydroxypropylcellulose) (HPC) 112 % of control | dose: 200.0 mg/kg/injection, schedule: Q01DX005 (ip), vehicle: Klucel (hydroxypropylcellulose) (HPC) 94 % of control

NC(=O)N=Nc1ccc(Cl)cc1
inactive: dose: 50.0 mg/kg/injection, schedule: Q01DX005 (ip), vehicle: saline with Tween-80 104 % of control | dose: 100.0 mg/kg/injection, schedule: Q01DX005 (ip), vehicle: saline with Tween-80 101 % of control | dose: 200.0 mg/kg/injection, schedule: Q01DX005 (ip), vehicle: saline with Tween-80 104 % of control

O=S(=O)(c1ccc(NC(=S)NC23CC4CC(CC(C4)C2)C3)cc1)N1CCCCC1
inactive: [4] 88 % of control | [5] 93 % of control | [6] 94 % of control

CC1CCCCC1NC(=O)NCCOC(=O)OCCNC(=O)NC1CCCCC1C (stereo not drawn)
inactive: [1] 90 % of control | [2] 86 % of control | [3] 86 % of control

CC(=O)OC1CC(=O)OC(C)(C)C2CC(=O)C3(C)C(CCC4(C)C(c5ccoc5)OC(=O)C5OC543)C12C (stereo not drawn)
inactive: dose: 50.0 mg/kg/injection, schedule: Q01DX009 (ip), vehicle: saline with Tween-80 99 % of control | [7] 97 % of control | [8] 97 % of control

CC/C(=N\NS(=O)(=O)c1ccc(C)cc1)c1ccc(Br)cc1
inactive: dose: 100.0 mg/kg/injection, schedule: Q04DX002 (ip), vehicle: saline 100 % of control | dose: 200.0 mg/kg/injection, schedule: Q04DX002 (ip), vehicle: saline 105 % of control | dose: 400.0 mg/kg/injection, schedule: Q04DX002 (ip), vehicle: saline 96 % of control

Cc1ccc(NC(=O)c2ccc([N+](=O)[O-])cc2)c(C)c1
inactive: [7] 100 % of control | [8] 100 % of control | dose: 400.0 mg/kg/injection, schedule: Q01DX009 (ip), vehicle: saline with Tween-80 110 % of control

CCSC(=S)NC#N
inactive: [4] 109 % of control | [5] 93 % of control | [6] 88 % of control

COc1ccc(CCNC(=O)c2ccc(OC)c(OCc3ccccc3)c2)cc1OC
inactive: dose: 25.0 mg/kg/injection, schedule: Q01DX009 (ip), vehicle: other 97 % of control | dose: 50.0 mg/kg/injection, schedule: Q01DX009 (ip), vehicle: other 95 % of control | dose: 100.0 mg/kg/injection, schedule: Q01DX009 (ip), vehicle: other 89 % of control | dose: 200.0 mg/kg/injection, schedule: Q01DX009 (ip), vehicle: other 89 % of control | dose: 400.0 mg/kg/injection, schedule: Q01DX009 (ip), vehicle: other 90 % of control

COC(=O)C12CC=CC1C(C)CC2 (stereo not drawn)
inactive: dose: 75.0 mg/kg/injection, schedule: Q04DX002 (ip), vehicle: Klucel (hydroxypropylcellulose) (HPC) 100 % of control | dose: 150.0 mg/kg/injection, schedule: Q04DX002 (ip), vehicle: Klucel (hydroxypropylcellulose) (HPC) 100 % of control | dose: 300.0 mg/kg/injection, schedule: Q04DX002 (ip), vehicle: Klucel (hydroxypropylcellulose) (HPC) 100 % of control

Cc1ccc(S(=O)(=O)N/N=C/c2cc([N+](=O)[O-])ccc2O)cc1
inactive: dose: 12.5 mg/kg/injection, schedule: Q01DX005 (ip), vehicle: distilled water + Tween-80 93 % of control | dose: 25.0 mg/kg/injection, schedule: Q01DX005 (ip), vehicle: distilled water + Tween-80 100 % of control | dose: 50.0 mg/kg/injection, schedule: Q01DX005 (ip), vehicle: distilled water + Tween-80 112 % of control | dose: 100.0 mg/kg/injection, schedule: Q01DX005 (ip), vehicle: distilled water + Tween-80 105 % of control

Cc1ccc(CCNC(=O)c2c3nc4c(C(=O)NCCc5ccc(C)cc5)ccc(C)c4oc-3c(C)c(=O)c2N)cc1
inactive: dose: 25.0 mg/kg/injection, schedule: Q04DX003 (ip), vehicle: DMSO 98 % of control | dose: 50.0 mg/kg/injection, schedule: Q04DX003 (ip), vehicle: DMSO 99 % of control | dose: 100.0 mg/kg/injection, schedule: Q04DX003 (ip), vehicle: DMSO 91 % of control

Nn1c(N/N=C\c2ccccc2)nnc1N/N=C/c1ccccc1
inactive: dose: 50.0 mg/kg/injection, schedule: Q01DX001 (ip), vehicle: Klucel (hydroxypropylcellulose) (HPC) 113 % of control | dose: 100.0 mg/kg/injection, schedule: Q01DX001 (ip), vehicle: Klucel (hydroxypropylcellulose) (HPC) 105 % of control

Cc1cc(O)cc(O)c1C(=O)OC1C[C@@]2(C)C1=C(CO)C[C@@H]1CC(C)(C)C[C@@H]12 (stereo partly drawn)
inactive: dose: 1.25 mg/kg/injection, schedule: Q01DX005 (ip), vehicle: Klucel (hydroxypropylcellulose) (HPC) 96 % of control | dose: 2.5 mg/kg/injection, schedule: Q01DX005 (ip), vehicle: Klucel (hydroxypropylcellulose) (HPC) 99 % of control | dose: 5.0 mg/kg/injection, schedule: Q01DX005 (ip), vehicle: Klucel (hydroxypropylcellulose) (HPC) 96 % of control | dose: 10.0 mg/kg/injection, schedule: Q01DX005 (ip), vehicle: Klucel (hydroxypropylcellulose) (HPC) 96 % of control | dose: 20.0 mg/kg/injection, schedule: Q01DX005 (ip), vehicle: Klucel (hydroxypropylcellulose) (HPC) 100 % of control | dose: 40.0 mg/kg/injection, schedule: Q01DX005 (ip), vehicle: Klucel (hydroxypropylcellulose) (HPC) 106 % of control | dose: 80.0 mg/kg/injection, schedule: Q01DX005 (ip), vehicle: Klucel (hydroxypropylcellulose) (HPC) 112 % of control | dose: 160.0 mg/kg/injection, schedule: Q01DX005 (ip), vehicle: Klucel (hydroxypropylcellulose) (HPC) 104 % of control

CCCCN1C(=O)[C@@H]2[C@H](c3ccccc3O)C(c3ccccc3O)[C@@H]2C1=O (stereo partly drawn)
inactive: dose: 60.0 mg/kg/injection, schedule: Q01DX005 (ip), vehicle: Klucel (hydroxypropylcellulose) (HPC) 100 % of control | dose: 120.0 mg/kg/injection, schedule: Q01DX005 (ip), vehicle: Klucel (hydroxypropylcellulose) (HPC) 92 % of control | dose: 240.0 mg/kg/injection, schedule: Q01DX005 (ip), vehicle: Klucel (hydroxypropylcellulose) (HPC) 100 % of control
